Counter-ions that a name gives are not always drawn.
Columns and labels:
[1] = system: primary heart muscle cells from newborn rats; test: Inhibitory activity on heart muscle cell apoptosis (serum-free culture, viable cell number by WST-8); type: cell-based, Wister rats; details: Rattus norvegicus, 96 h; mean of three independent experiments; concentration required to increase the mean viable cell number by 50% as compared with that in the absence of test compounds; serum-free Medium 199, 4 days
From the text: Inhibitory Activity on Heart Muscle Cell Apoptosis
Newborn rats (within 1 day afterbirth) were obtained from pregnant Wister rats purchased from Charles River, anesthetized under ether, and sterilized with 70% ethanol, and then their hearts were excised with tweezers. The excised hearts were washed with a phosphate-buffered physiological saline (T900; Takara) and cut into pieces with surgical scissors. These tissue pieces were washed 4 to 5 times with a phosphate-buffered physiological saline to remove a majority of blood-derived non-heart muscle cells. To the tissue pieces derived from 10 newborns, 5 ml of enzyme solution (1.25 mg trypsin (Difco) and 0.25 mg collagenase (Sigma) per ml of phosphate-buffered saline (PBS)) was added and the mixture was stirred with a stirrer at 37° C. for 15 minutes. Another 2.5 ml enzyme solution was then added twice repeatedly at a 15-minutes interval. Then, Medium 199 (Gibco) containing 10% fetal calf serum (Biowiker) was added in a half volume of the enzyme solution to terminate the enzyme reaction. The cells were filtered through a Cell Strainer (Falcon) and then centrifuged at 400×g for 5 minutes, whereby the cells were collected.
The cells thus collected from 10 newborns were suspended in 50 ml Medium 199 containing 10% fetal calf serum, plated onto 100 mm Petri dishes (Iwaki) in a volume of 10 ml/dish and cultured for 1 hour in a CO2 incubator set at 5% CO2 and 37° C. The cells were then recovered, filtered through a Cell Strainer and centrifuged at 400×g for 5 minutes to collect the primary heart muscle cells derived from newborn rats.
Then, the heart muscle cells from 10 newborn rats were suspended in 2 ml low-isotonic solution (prepared by dissolving 8.29 g NH4Cl, 1.0 g KHCO3, 37 mg EDTA/2Na (ethylenediaminetetraacetic acid disodium) (Dojindo) in 1 L of water) and left for 3 minutes to disrupt erythrocytes. After 10 ml Medium 199 containing 10% fetal calf serum was added thereto, the primary heart muscle cells from newborn rats were collected by centrifugation at 400×g for 5 minutes. The cells were suspended in Medium 199 containing 10% fetal calf serum and then filtered through a cell strainer. After 0.3% trypan blue was added to, and mildly mixed with, an aliquot of the resulting cell suspension, the number of heart muscle cells was counted on an erythrocyte counting plate.
The primary heart muscle cells from newborn rats were suspended at a density of 3×10^6 cells/ml in Medium 199 containing 10% fetal calf serum, put onto a 96-well plate in a volume of 0.1 ml/well, and then cultured in a CO2 incubator set at 5% CO2 and 37° C. After the plate was stirred with a micromixer (Taiyo Kagaku Kogyo), the medium was exchanged 3 times with serum-free Medium 199, and then test compounds were added thereto. The cells were cultured for additional 4 days to induce apoptosis. Then, fetal calf serum was added thereto at a concentration of 10%, and the cells were further cultured for about 17 hours in a CO2 incubator set at 5% CO2 and 37° C. Finally, the number of viable cells was determined with Cell Counting Kit (Dojindo) using WST-8 (2-(2-methoxy-4-nitrophenyl)-3-(4-nitrophenyl)-5-(2,4-disulfophenyl)-2H-tetrazolium, monosodium salt) as the coloring substrate to determine the inhibition of the heart muscle cell apoptosis.
The above-mentioned experiment was triplicated in an independent manner.
The Mean minimal effective concentration (±SD) was shown for each test compound (Compounds 1 to 5 obtained in Reference Examples) in Table 1. In Table 1, the minimal effective concentration is defined as the concentration required to increase the mean viable cell number by 50% as compared with that in the absence of test compounds.

Molecule CN(C(=O)c1ccccc1)c1cccc(-c2nc(=O)c3ccccc3s2)n1 [Example 113, N-Methyl-N-[6-(4-oxo-4H-1,3-benzothiazin-2-yl)-2-pyridyl]benzamide] has a minimal effective concentration [1] of 0.022 µM and a melting point of 234 to 235.4 °C.

Work on CC(C)Sc1cccc(-c2nc(=O)c3ccccc3s2)n1 [Example 127, 2-[6-(Isopropylthio)-2-pyridyl]-4H-1,3-benzothiazine-4-one] yielded a minimal effective concentration [1] of 0.04 µM and a melting point of 185.4 to 185.8 °C.

NCCCCCCNC(=O)c1cccc(-c2nc(=O)c3ccccc3s2)n1 [Example 107, N-(6-Aminohexyl)-6-(4-oxo-4H-1,3-benzothiazin-2-yl)-2-pyridinecarboxamide hydrochloride] showed a minimal effective concentration [1] of 0.012 µM.

O=c1nc(-c2ccc(C(F)(F)F)cn2)sc2ccccc12 [Example 49, 2-[5-(trifluoromethyl)-2-pyridyl]-4H-1,3-benzothiazine-4-one] gave a minimal effective concentration [1] of 0.043 µM and a melting point of 207.2 to 207.4 °C.

Work on CN(C)/C=N/S(=O)(=O)CC(C)(C)COc1cccc(-c2nc(=O)c3ccccc3s2)n1 [Example 100, N,N-(Dimethylaminomethylene)-2,2-dimethyl-3-{[6-(4-oxo-4H-1,3-benzothiazin-2-yl)-2-pyridyl]oxy}-1-propanesulfonamide] yielded a minimal effective concentration [1] of 0.036 µM and a melting point of 174.5 to 175.3 °C.

CSc1cccc(-c2nc(=O)c3ccccc3s2)n1 [Example 43, 2-(6-Methylthio-2-pyridyl)-4H-1,3-benzothiazine-4-one] gave a minimal effective concentration [1] of 0.053 µM and a melting point of 207.2 to 207.8 °C.

For Cc1ccc(S(=O)(=O)c2cccc(-c3nc(=O)c4ccccc4s3)n2)cc1 [Example 64, 2-{6-[(4-Methylphenyl)sulfonyl]-2-pyridyl}-4H-1,3-benzothiazine-4-one], the minimal effective concentration [1] was 0.052 µM and the melting point was 219.6 °C (dec.).

Work on O=c1nc(-c2cnccn2)sc2ccccc12 [Example 7, 2-Pyrazinyl-4H-1,3-benzothiazine-4-one] yielded a minimal effective concentration [1] of 0.021 µM and a melting point of 240.7 to 241.7 °C.

With CCCNC(=O)c1ccc(-c2nc(=O)c3ccccc3s2)nc1 [Example 37, 6-(4-Oxo-4H-1,3-benzothiazin-2-yl)-N-propylnicotinamide] the minimal effective concentration [1] was 0.037 µM and the melting point was 268 to 268.6 °C.

With COc1cc(-c2nc(=O)c3ccccc3s2)ccn1 [Example 70, 2-(2-Methoxy-4-pyridyl)-4H-1,3-benzothiazine-4-one] the minimal effective concentration [1] was 0.017 µM and the melting point was 148.8 to 150.5 °C.

In the case of O=c1nc(-c2cnccn2)sc2cc(Cl)ccc12 [Example 30, 7-Chloro-2-(2-pyrazyl)-4H-1,3-benzothiazine-4-one], the minimal effective concentration [1] is reported as 0.012 µM and the melting point is reported as 240.6 to 240.9 °C.

With O=c1nc(-c2ccnc(N3CCOCC3)c2)sc2ccccc12 [Example 73, 2-(2-Morpholinyl-4-pyridyl)-4H-1,3-benzothiazine-4-one] the minimal effective concentration [1] was 0.024 µM and the melting point was 157 to 158 °C.

In the case of O=c1nc(-c2cccc(CO)n2)sc2ccccc12 [Example 40, 2-[6-(Hydroxymethyl)-2-pyridyl]-4H-1,3-benzothiazine-4-one], the minimal effective concentration [1] is reported as 0.044 µM and the melting point is reported as 208.2 to 208.7 °C.

CCOc1cccc(-c2nc(=O)c3ccccc3s2)n1 [Example 134, 2-(6-Ethoxy-2-pyridyl)-4H-1,3-benzothiazine-4-one] gave a minimal effective concentration [1] of 0.095 µM and a melting point of 179.5 to 180 °C.

COC(=O)c1ccc(-c2nc(=O)c3ccccc3s2)nc1 [Example 28, Methyl 6-(4-oxo-4H-1,3-benzothiazin-2-yl)nicotinate] gave a minimal effective concentration [1] of 0.025 µM.

For CCCS(=O)(=O)c1cccc(-c2nc(=O)c3ccccc3s2)n1 [Example 61, 2-(6-Propylsulfonyl-2-pyridyl)-4H-1,3-benzothiazine-4-one], the minimal effective concentration [1] was 0.01 µM and the melting point was 173.8 to 174.5 °C.

With O=C(NCc1ccccc1)c1cccc(-c2nc(=O)c3ccccc3s2)n1 [Example 51, N-Benzyl-6-(4-oxo-4H-1,3-benzothiazin-2-yl)-2-pyridinecarboxamide] the minimal effective concentration [1] was 0.034 µM and the melting point was 197.1 to 197.9 °C.

With CN(C(=O)c1ccco1)c1cccc(-c2nc(=O)c3ccccc3s2)n1 [Example 112, N-Methyl-N-[6-(4-oxo-4H-1,3-benzothiazin-2-yl)-2-pyridyl]-2-furamide] the minimal effective concentration [1] was 0.051 µM and the melting point was 186.2 to 187.2 °C.

O=c1nc(-c2ccccn2)sc2ccc(OCCCCCCO)cc12 [Example 119, 6-(6-Hydroxyhexyloxy)-2-(2-pyridyl)-4H-1,3-benzothiazine-4-one] gave a melting point of 135.6 to 137 °C.

Work on Cc1cccc2c(=O)nc(-c3cccc(C(=O)NCCCCCCNC(=O)OC(C)(C)C)n3)sc12 [Example 234, tert-Butyl 6-[[[6-(8-methyl-4-oxo-4H-1,3-benzothiazin-2-yl)-2-pyridyl]carbonyl]amino]hexylcarbamate] yielded a melting point of 170.7 to 171.5 °C.

In the case of O=c1nc(-c2cccc(CSCc3ccccc3)n2)sc2ccccc12 [Example 255, 2-[6-[(Benzylthio)methyl]-2-pyridyl]-4H-1,3-benzothiazine-4-one], the melting point is reported as 126 to 128 °C.

CCOC(=O)CSc1cccc(-c2nc(=O)c3ccccc3s2)n1 [Example 277, Ethyl {[6-(4-oxo-4H-1,3-benzothiazin-2-yl)-2-pyridyl]thio}acetate] showed a melting point of 124.5 to 125 °C.

In the case of O=c1nc(-c2cccc(CP(=O)(O)O)n2)sc2ccccc12 [Example 244], the melting point is reported as 254 °C (dec.).

CC[S+]([O-])c1cccc(-c2nc(=O)c3ccccc3s2)n1 (stereo not drawn) [Example 149, 2-[6-(Ethylsulfinyl)-2-pyridyl]-4H-1,3-benzothiazine-4-one] showed a melting point of 181.5 to 182.1 °C.

O=c1nc(-c2cccc(-c3cccs3)n2)sc2ccccc12 [Example 193, 2-[6-(2-Thienyl)-2-pyridyl]-4H-1,3-benzothiazin-4-one] gave a melting point of 222.2 to 223.4 °C.

O=c1nc(-c2cccc([S+]([O-])CCc3ccccc3)n2)sc2ccccc12 (stereo not drawn) [Example 162, 2-[6-(2-Phenylethylsulfinyl)-2-pyridyl]-4H-1,3-benzothiazine-4-one] gave a melting point of 164.5 to 165.5 °C.

In the case of O=c1nc(-c2cccc(Oc3ccccc3)n2)sc2ccccc12 [Example 41, 2-(6-Phenoxy-2-pyridyl)-4H-1,3-benzothiazine-4-one], the melting point is reported as 160.8 to 161.3 °C.

Molecule Cc1ccc(Sc2cccc(-c3nc(=O)c4ccccc4s3)n2)cc1 [Example 46, 2-{6-[(4-methylphenyl)thio]-2-pyridyl}-4H-1,3-benzothiazine-4-one] has a melting point of 176.9 to 178.4 °C.

O=c1nc(-c2cccc(-c3ccco3)n2)sc2ccccc12 [Example 194, 2-[6-(2-Furyl)-2-pyridyl]-4H-1,3-benzothiazine-4-one] showed a melting point of 217.9 to 218.4 °C.

Molecule Cc1cc(CCC(=O)O)nc(-c2nc(=O)c3ccccc3s2)c1 [Example 191, 3-[4-Methyl-6-(4-oxo-4H-1,3-benzothiazin-2-yl)-2-pyridyl]propionic acid] has a melting point of 244.6 to 245.5 °C.

With CS(=O)(=O)c1cncc(-c2nc(=O)c3ccccc3s2)n1 [Example 289, 2-[6-(Methylsulfonyl)-2-pyrazinyl]-4H-1,3-benzothiazine-4-one] the melting point was 232 to 233 °C.

With O=c1nc(-c2ccnc(-c3cccs3)c2)sc2ccccc12 [Example 75, 2-[2-(2-Thienyl)-4-pyridyl]-4H-1,3-benzothiazine-4-one] the melting point was 160.4 to 161.1 °C.

Reference: patent US7767665B2, “1,3-benzothiazinone derivatives and use thereof” (Takeda Pharmaceutical Company Limited, priority 2001, dated 2010)
